Results taken from patent publication US12157730B2, “Heteroaryl derivative, method for producing same, and pharmaceutical composition comprising same as effective component” (VORONOI INC., priority 2019, dated 2024).

These molecules were tested against T1, Ba/F3 cell EGFR Exon20 ins NPH (Homo sapiens, UniProt P00533, INS773NPH) (assay: Ba/F3 cell proliferation suppression, EGFR Exon20 ins NPH). Conditions: GI50 class; Ba/F3 cell line with NPH inserted at Exon20 of EGFR; 72 hours.
T1 construct: expressed in transfected cells; host or cells: Ba/F3
Assay type: cell-based
Procedure, shortened: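 Growth suppression determined as GI50 following 72 h exposure across 12 concentrations up to 50 um, with viability by luminescent ATP assay (CellTiter-Glo).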

SMILES	Ba/F3 (NPH) Activity
C=CC(=O)Nc1cc(Nc2cc(N3OCC[C@@H]3c3ccc(F)cc3F)ncn2)c(OC)cc1N1CCC(N2C[C@@H]3C[C@H]2CN3CC)CC1 [compound 382, N-(5-((6-((R)-3-(2,4-difluorophenyl)isoxazolidine-2-yl)pyrimidine-4-yl)amino)-2-(4-((1S,4S)-5-ethyl-2,5-diazabicyclo [2.2.1]heptane-2-yl)piperidine-1-yl)-4-methoxyphenyl) acrylamide]	A (GI50 < 50 nM)
C=CC(=O)Nc1cc(Nc2cc(N3OCC[C@@H]3c3cccc(F)c3)ncn2)c(OC)cc1N1CCC(N2C[C@H]3C[C@@H]2CO3)CC1 [Example 243, N-(2-(4-((1R,4R)-2-oxa-5-azabicyclo[2.2.1]heptane-5-yl)piperidine-1-yl)-5-((6-((R)-3-(3-fluorophenyl)isoxazolidine-2-yl)pyrimidine-4-yl)amino)-4-methoxyphenyl) acrylamide]	A (GI50 < 50 nM)
C=CC(=O)Nc1cc(Nc2cc(N3OCC[C@@H]3c3cc(F)cc(F)c3)ncn2)c(OC)cc1N1CCC(N2CC3(COC3)C2)CC1 [Example 103, N-(2-(4-(2-oxa-6-azaspiro[3.3]heptane-6-yl)piperidine-1-yl)-5-((6-((R)-3-(3,5-difluorophenyl)isoxazolidine-2-yl)pyrimidine-4-yl)amino)-4-methoxyphenyl) acrylamide]	A (GI50 < 50 nM)
C=CC(=O)Nc1cc(Nc2cc(N3OCC[C@@H]3c3cc(F)ccc3F)ncn2)c(OC)cc1N1CC[C@H](N(C)C)C1 [compound 301, N-(5-((6-((R)-3-(2,5-difluorophenyl)isoxazolidine-2-yl)pyrimidine-4-yl)amino)-2-((S)-3-(dimethylamino)pyrolidine-1-yl)-4-methoxyphenyl) acrylamide]	A (GI50 < 50 nM)
C=CC(=O)Nc1cc(Nc2cc(N3OCC[C@@H]3c3cccc(C#N)c3)ncn2)c(OC)cc1N1CCC(N2C[C@@H]3C[C@H]2CO3)CC1 [compound 493, N-(2-(4-((1S,4S)-2-oxa-5-azabicyclo[2.2.1]heptane-5-yl)piperidine-1-yl)-5-((6-((R)-3-(3-cyanophenyl)isoxazolidine-2-yl)pyrimidine-4-yl)amino)-4-methoxyphenyl) acrylamide]	B (50 nM ≤ GI50 < 500 nM)
C=CC(=O)Nc1cc(Nc2cc(N3OCC[C@@H]3c3cc(F)cc(F)c3)ncn2)c(OC)cc1N1CCC(N2CCN(C)CC2=O)CC1 [compound 722, N-(5-((6-((R)-3-(3,5-difluorophenyl)isoxazolidine-2-yl)pyrimidine-4-yl)amino)-4-methoxy-2-(4-(4-methyl-2-oxopiperazine-1-yl)piperidine-1-yl)phenyl)acrylamide]	B (50 nM ≤ GI50 < 500 nM)
C=CC(=O)Nc1cc(Nc2cc(N3OCC[C@@H]3c3cccc(OC)c3)ncn2)c(OC)cc1N1CCC(N2C[C@@H]3C[C@H]2CO3)CC1 [Example 27, N-(2-(4-((1S,4S)-2-oxa-5-azabicyclo[2.2.1]heptane-5-yl)piperidine-1-yl)-4-methoxy-5-((6-((R)-3-(3-methoxyphenyl)isoxazolidine-2-yl)pyrimidine-4-yl)amino)phenyl) acrylamide]	A (GI50 < 50 nM)
C=CC(=O)Nc1cc(Nc2cc(N3OCC[C@@H]3Cc3ccccc3)ncn2)c(OC)cc1N1C[C@@H]2C[C@H]1CO2 [compound 962, N-(5-((6-((S)-3-benzylisoxazolidine-2-yl)pyrimidine-4-yl)amino)-2-((1S,4S)-2-oxa-5-azabicyclo [2.2.1]heptane-5-yl)-4-methoxyphenyl) acrylamide]	A (GI50 < 50 nM)
C=CC(=O)Nc1cc(Nc2cc(N3OCC[C@@H]3c3cc(F)ccc3F)ncn2)c(OC)cc1N1CCN(CCC)CC1 [compound 300, N-(5-((6-((R)-3-(2,5-difluorophenyl)isoxazolidine-2-yl)pyrimidine-4-yl)amino)-4-methoxy-2-(4-propylpiperazine-1-yl)phenyl)acrylamide]	A (GI50 < 50 nM)
C=CC(=O)Nc1cc(Nc2cc(N3OCC[C@@H]3c3cccc(Cl)c3)ncn2)c(OC)cc1N1CCC(N(C)C)CC1 [compound 361, N-(5-((6-((R)-3-(3-chlorophenyl)isoxazolidine-2-yl)pyrimidine-4-yl)amino)-2-(4-(dimethylamino)piperidine-1-yl)-4-methoxyphenyl) acrylamide]	A (GI50 < 50 nM)
C=CC(=O)Nc1cc(Nc2cc(N3OCC[C@@H]3c3ccc(F)c(F)c3F)ncn2)c(OC)cc1N1CCC(N2C[C@H]3C[C@@H]2CO3)CC1 [compound 575, N-(2-(4-((1R,4R)-2-oxa-5-azabicyclo [2.2.1]heptane-5-yl)piperidine-1-yl)-4-methoxy-5-((6-((R)-3-(2,3,4-trifluorophenyl)isoxazolidine-2-yl)pyrimidine-4-yl)amino)phenyl)acrylamide]	A (GI50 < 50 nM)
C=CC(=O)Nc1cc(Nc2cc(N3OCC[C@@H]3Cc3ccccc3)ncn2)c(OC)cc1N(C)CCN(C)C [compound 947, N-(5-((6-((S)-3-benzylisoxazolidine-2-yl)pyrimidine-4-yl)amino)-2-((2-(dimethylamino)ethyl)(methyl)amino)-4-methoxyphenyl) acrylamide]	A (GI50 < 50 nM)
C=CC(=O)Nc1cc(Nc2cc(N3OCC[C@@H]3c3cccc(OC)c3)ncn2)c(OC)cc1N1CCN(C)CC1 [Example 25, N-(4-methoxy-5-((6-((R)-3-(3-methoxyphenyl)isoxazolidine-2-yl)pyrimidine-4-yl)amino)-2-(4-methylpiperazine-1-yl)phenyl) acrylamide]	B (50 nM ≤ GI50 < 500 nM)
C=CC(=O)Nc1cc(Nc2cc(N3OCC[C@@H]3c3ccc(F)c(F)c3)ncn2)c(OC)cc1N1C2CC1CN(C)C2 [compound 542, N-(5-((6-((R)-3-(3,4-difluorophenyl)isoxazolidine-2-yl)pyrimidine-4-yl)amino)-4-methoxy-2-(3-methyl-3,6-diazabicyclo [3.1.1]heptane-6-yl)phenyl)acrylamide]	B (50 nM ≤ GI50 < 500 nM)

Further lines, results first:

Ba/F3 (NPH) Activity	SMILES
A (GI50 < 50 nM)	C=CC(=O)Nc1cc(Nc2cc(N3OCC[C@@H]3c3cc(F)cc(F)c3)ncn2)c(OC)cc1N1CCC(N2CCN(C3COC3)CC2)CC1 [Example 79, N-(5-((6-((R)-3-(3,5-difluorophenyl)isoxazolidine-2-yl)pyrimidine-4-yl)amino)-4-methoxy-2-(4-(4-(oxetane-3-yl)piperazine-1-yl)piperidine-1-yl)phenyl)acrylamide]
A (GI50 < 50 nM)	C=CC(=O)Nc1cc(Nc2cc(N3OCC[C@@H]3c3cccc(F)c3F)ncn2)c(OC)cc1N1CCC(N2CCN(CC)CC2)CC1 [compound 922]
A (GI50 < 50 nM)	C=CC(=O)Nc1cc(Nc2cc(N3OCC[C@@H]3c3cccc(F)c3)ncn2)c(OC)cc1N1CCC(N2CCN(C)CC2)CC1 [Example 31, N-(5-((6-((R)-3-(3-fluorophenyl)isoxazolidine-2-yl)pyrimidine-4-yl)amino)-4-methoxy-2-(4-(4-methylpiperazine-1-yl)piperidine-1-yl)phenyl) acrylamide]
B (50 nM ≤ GI50 < 500 nM)	C=CC(=O)Nc1cc(Nc2cc(N3OCC[C@H]3Cc3cccnc3)ncn2)c(OC)cc1N1CCC(N2CCN(C3CC3)CC2)CC1 [compound 988, N-(2-(4-(4-cyclopropylpiperazine-1-yl)piperidine-1-yl)-4-methoxy-5-((6-((R)-3-(pyridine-3-ylmethyl)isoxazolidine-2-yl)pyrimidine-4-yl)amino)phenyl) acrylamide]
A (GI50 < 50 nM)	C=CC(=O)Nc1cc(Nc2cc(N3OCC[C@@H]3c3ccc(F)c(Cl)c3)ncn2)c(OC)cc1N1CCN(C)CC1 [compound 702, N-(5-((6-((R)-3-(3-chloro-4-fluorophenyl)isoxazolidine-2-yl)pyrimidine-4-yl)amino)-4-methoxy-2-(4-methylpiperazine-1-yl)phenyl)acrylamide]
A (GI50 < 50 nM)	C=CC(=O)Nc1cc(Nc2cc(N3OCC[C@@H]3Cc3ccccn3)ncn2)c(OC)cc1N1CCC(N2CCN(C3CC3)CC2)CC1 [compound 1059, N-(2-(4-(4-cyclopropylpiperazine-1-yl)piperidine-1-yl)-4-methoxy-5-((6-((S)-3-(pyridine-2-ylmethyl)isoxazolidine-2-yl)pyrimidine-4-yl)amino)phenyl)acrylamide]
A (GI50 < 50 nM)	C#Cc1cccc([C@H]2CCON2c2cc(Nc3cc(NC(=O)C=C)c(N4CCC(N5CCN(CC=C)CC5)CC4)cc3OC)ncn2)c1 [Example 216, N-(2-(4-(4-allylpiperazine-1-yl)piperidine-1-yl)-5-((6-((R)-3-(3-ethynylphenyl)isoxazolidine-2-yl)pyrimidine-4-yl)amino)-4-methoxyphenyl) acrylamide]
A (GI50 < 50 nM)	C=CC(=O)Nc1cc(Nc2cc(N3OCC[C@@H]3c3ccc(F)cc3)ncn2)c(OC)cc1N1CCC(N2CC[C@H](N(C)C)C2)CC1 [compound 811, N-(2-(4-((S)-3-(dimethylamino)pyrolidine-1-yl)piperidine-1-yl)-5-((6-((R)-3-(4-fluorophenyl)isoxazolidine-2-yl)pyrimidine-4-yl)amino)-4-methoxyphenyl) acrylamide]
A (GI50 < 50 nM)	C=CC(=O)Nc1cc(Nc2cc(N3OCC[C@@H]3c3ccc(F)c(Cl)c3)ncn2)c(OC)cc1N1CCC(N2CCN(C3CC3)CC2)CC1 [Example 59, N-(5-((6-((R)-3-(3-chloro-4-fluorophenyl)isoxazolidine-2-yl)pyrimidine-4-yl)amino)-2-(4-(4-cyclopropylpiperazine-1-yl)piperidine-1-yl)-4-methoxyphenyl) acrylamide;]
A (GI50 < 50 nM)	C=CC(=O)Nc1cc(Nc2cc(N3OCC[C@@H]3c3ccc(F)cc3F)ncn2)c(OC)cc1N1CCN(C2CC2)CC1 [compound 344, N-(2-(4-cyclopropylpiperazine-1-yl)-5-((6-((R)-3-(2,4-difluorophenyl)isoxazolidine-2-yl)pyrimidine-4-yl)amino)-4-methoxyphenyl) acrylamide]
